Data on 2 compounds can be found in ChEMBL document CHEMBL1146799, “Molecular modeling on DNA cleavage activity of seryl-histidine and related dipeptide” (Bioorg Med Chem Lett, 2004).

Molecules are shown by their SMILES. Residues, ends and D or L forms follow the SMILES beside them.

Assay [1] relates to Nucleic Acid. The experiment in a line: DNA cleaving activity was determined; +++++ indicates 100% of Ser-His cleavage activity. Type of assay: functional.
Assay [2] concerns Nucleic Acid. In words: DNA cleaving activity was determined; +/- indicates marginally detectable cleavage activity. Type of assay: functional.

For `N[C@@H](CO)C(=O)N[C@@H](Cc1c[nH]cn1)C(=O)O` (H-Ser-His-OH), in assay [1], the Activity result was “++++”.
Consider `C[C@@H](O)[C@H](N)C(=O)N[C@@H](Cc1c[nH]cn1)C(=O)O` (H-Thr-His-OH), for which the Activity entry in assay [2] is listed as “+/-”.
